Molecular target: His-tagged recombinant human Gal-3 (hGal-3) (Homo sapiens (Human), UniProt P17931)
Assay: Gal-3 HTRF assay (His-tagged hGal-3 binding to B-ASF);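 also: compounds preincubated 30 min with hGal-3, then 1 h with B-ASF, detection via terbium anti-His antibody and streptavidin d2. Control with B-ASF counts as full signal, omitting B-ASF as background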
Details: HTRF, hGal-3 15 nM, B-ASF 15 nM; read-out: hGal-3 IC50

His-tagged recombinant human Gal-3 (hGal-3), sequence (P17931 whole entry): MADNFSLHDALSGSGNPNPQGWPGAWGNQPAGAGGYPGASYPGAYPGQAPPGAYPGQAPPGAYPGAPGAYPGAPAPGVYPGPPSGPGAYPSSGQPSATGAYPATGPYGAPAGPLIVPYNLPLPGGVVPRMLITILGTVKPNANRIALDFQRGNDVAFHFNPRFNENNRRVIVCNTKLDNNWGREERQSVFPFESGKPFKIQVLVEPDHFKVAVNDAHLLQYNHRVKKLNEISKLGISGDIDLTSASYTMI

IC50 [nM] | Compound
50 | Cc1nc([C@@H]2O[C@H](CO)[C@H](O)[C@H](n3cc(-c4cc(F)c(F)c(F)c4)nn3)[C@H]2O)n(-c2ccc3nc(C)sc3c2)n1 [Example 57, (2R,3R,4R,5R,6S)-2-(hydroxymethyl)-6-(3-methyl-1-(2-methylbenzo[d]thiazol-6-yl)-1H-1,2,4-triazol-5-yl)-4-(4-(3,4,5-trifluorophenyl)-1H-1,2,3-triazol-1-yl)tetrahydro-2H-pyran-3,5-diol]
3840 | Cc1nc([C@@H]2O[C@H](CO)[C@H](O)[C@H](n3cc(-c4cc(F)c(F)c(F)c4)nn3)[C@H]2O)n(-c2nc3ccnn3cc2F)n1 [Example 66]
50 | Cc1nc([C@@H]2O[C@H](CO)[C@H](O)[C@H](n3cc(-c4cc(F)c(F)c(F)c4)nn3)[C@H]2O)n(-c2cc(C(F)(F)F)ccc2Cl)n1 [Example 70]
110 | COc1ccc(Cl)cc1-n1cnnc1[C@@H]1O[C@H](CO)[C@H](O)[C@H](n2cc(-c3cc(F)c(F)c(F)c3)nn2)[C@H]1O [Example 74]
330 | OC[C@H]1O[C@@H](c2nncn2-c2ccc(Cl)cc2)[C@H](O)[C@@H](n2cc(-c3cc(F)c(F)c(F)c3)nn2)[C@H]1O [Example 75]
140 | Cc1ccc(-n2cnnc2[C@@H]2O[C@H](CO)[C@H](O)[C@H](n3cc(-c4cc(F)c(F)c(F)c4)nn3)[C@H]2O)cc1C [Example 77]
580 | OC[C@H]1O[C@@H](c2nncn2-c2ccc(-c3cnco3)cc2)[C@H](O)[C@@H](n2cc(-c3cc(F)c(F)c(F)c3)nn2)[C@H]1O [Example 82]
900 | OC[C@H]1O[C@@H](c2nncn2-c2ccc(Cl)cc2Cl)[C@H](O)[C@@H](n2cc(-c3cc(F)c(F)c(F)c3)nn2)[C@H]1O [Example 83]
380 | COc1ccccc1-n1cnnc1[C@@H]1O[C@H](CO)[C@H](O)[C@H](n2cc(-c3cc(F)c(F)c(F)c3)nn2)[C@H]1O [Example 86]
100 | OC[C@H]1O[C@@H](c2nncn2-c2ccc(Cl)c(C(F)(F)F)c2)[C@H](O)[C@@H](n2cc(-c3cc(F)c(F)c(F)c3)nn2)[C@H]1O [Example 87]
520 | OC[C@H]1O[C@@H](c2nncn2-c2ccc(Cc3ccncc3)cc2)[C@H](O)[C@@H](n2cc(-c3cc(F)c(F)c(F)c3)nn2)[C@H]1O [Example 90]
290 | OC[C@H]1O[C@@H](c2nncn2-c2ccc3c(c2)OCCO3)[C@H](O)[C@@H](n2cc(-c3cc(F)c(F)c(F)c3)nn2)[C@H]1O [Example 96]
470 | OC[C@H]1O[C@@H](c2nncn2-c2cccc(-c3ccccc3)c2)[C@H](O)[C@@H](n2cc(-c3cc(F)c(F)c(F)c3)nn2)[C@H]1O [Example 100]
700 | CC(C)Oc1ccc(-n2cnnc2[C@@H]2O[C@H](CO)[C@H](O)[C@H](n3cc(-c4cc(F)c(F)c(F)c4)nn3)[C@H]2O)cc1 [Example 103]
330 | CC(C)Oc1cccc(-n2cnnc2[C@@H]2O[C@H](CO)[C@H](O)[C@H](n3cc(-c4cc(F)c(F)c(F)c4)nn3)[C@H]2O)c1 [Example 105]
370 | OC[C@H]1O[C@@H](c2nncn2-c2cccc(OCc3ccccc3)c2)[C@H](O)[C@@H](n2cc(-c3cc(F)c(F)c(F)c3)nn2)[C@H]1O [Example 108]
480 | CS(=O)(=O)Nc1cccc(-n2cnnc2[C@@H]2O[C@H](CO)[C@H](O)[C@H](n3cc(-c4cc(F)c(F)c(F)c4)nn3)[C@H]2O)c1 [Example 113]

More lines, now with the values behind:

Compound | IC50 [nM]
Cc1nc([C@@H]2O[C@H](CO)[C@H](O)[C@H](n3cc(-c4cc(F)c(F)c(F)c4)nn3)[C@H]2O)n(-c2ccc3ncn(C)c3c2)n1 [Example 59] | 140
Cc1nc([C@@H]2O[C@H](CO)[C@H](O)[C@H](n3cc(-c4cc(F)c(F)c(F)c4)nn3)[C@H]2O)n(-c2ccc(Cl)cc2C)n1 [Example 63] | 850
Cc1nc([C@@H]2O[C@H](CO)[C@H](O)[C@H](n3cc(-c4cc(F)c(F)c(F)c4)nn3)[C@H]2O)n(-c2cc(Cl)ccc2C#N)n1 [Example 64] | 90
Cc1nc([C@@H]2O[C@H](CO)[C@H](O)[C@H](n3cc(-c4cc(F)c(F)c(F)c4)nn3)[C@H]2O)n(-c2cncc(Cl)c2)n1 [Example 65] | 220
Cc1nc([C@@H]2O[C@H](CO)[C@H](O)[C@H](n3cc(-c4cc(F)c(F)c(F)c4)nn3)[C@H]2O)n(-c2cc(Cl)cc(C(F)(F)F)c2)n1 [Example 67] | 130
Cc1nc([C@@H]2O[C@H](CO)[C@H](O)[C@H](n3cc(-c4cc(F)c(F)c(F)c4)nn3)[C@H]2O)n(-c2cc(Cl)c(Cl)cc2C)n1 [Example 69] | 60
Cc1nc([C@@H]2O[C@H](CO)[C@H](O)[C@H](n3cc(-c4cc(F)c(F)c(F)c4)nn3)[C@H]2O)n(-c2cc(F)ccc2C(F)(F)F)n1 [Example 71] | 90
CCc1ccc(Cl)cc1-n1nc(C)nc1[C@@H]1O[C@H](CO)[C@H](O)[C@H](n2cc(-c3cc(F)c(F)c(F)c3)nn2)[C@H]1O [Example 72] | 20
OC[C@H]1O[C@@H](c2nncn2-c2ccccc2)[C@H](O)[C@@H](n2cc(-c3cc(F)c(F)c(F)c3)nn2)[C@H]1O [Example 73, (2R,3R,4R,5R,6S)-2-(hydroxymethyl)-6-(4-phenyl-4H-1,2,4-triazol-3-yl)-4-(4-(3,4,5-trifluorophenyl)-1H-1,2,3-triazol-1-yl)tetrahydro-2H-pyran-3,5-diol] | 210
OC[C@H]1O[C@@H](c2nncn2-c2ccc3c(c2)OCO3)[C@H](O)[C@@H](n2cc(-c3cc(F)c(F)c(F)c3)nn2)[C@H]1O [Example 76] | 120
OC[C@H]1O[C@@H](c2nncn2-c2cccc(Oc3ccccc3)c2)[C@H](O)[C@@H](n2cc(-c3cc(F)c(F)c(F)c3)nn2)[C@H]1O [Example 78] | 830
COc1ccc(-n2cnnc2[C@@H]2O[C@H](CO)[C@H](O)[C@H](n3cc(-c4cc(F)c(F)c(F)c4)nn3)[C@H]2O)cc1OC [Example 79] | 170
OC[C@H]1O[C@@H](c2nncn2-c2cccc(C(F)(F)F)c2)[C@H](O)[C@@H](n2cc(-c3cc(F)c(F)c(F)c3)nn2)[C@H]1O [Example 80] | 330
CC(=O)Nc1cccc(-n2cnnc2[C@@H]2O[C@H](CO)[C@H](O)[C@H](n3cc(-c4cc(F)c(F)c(F)c4)nn3)[C@H]2O)c1 [Example 84] | 900
OC[C@H]1O[C@@H](c2nncn2-c2ccc(F)cc2)[C@H](O)[C@@H](n2cc(-c3cc(F)c(F)c(F)c3)nn2)[C@H]1O [Example 85] | 440
OC[C@H]1O[C@@H](c2nncn2-c2ccc(Br)cc2)[C@H](O)[C@@H](n2cc(-c3cc(F)c(F)c(F)c3)nn2)[C@H]1O [Example 88] | 360
OC[C@H]1O[C@@H](c2nncn2-c2ccccc2Cl)[C@H](O)[C@@H](n2cc(-c3cc(F)c(F)c(F)c3)nn2)[C@H]1O [Example 89] | 460
CN(C)c1ccc(-n2cnnc2[C@@H]2O[C@H](CO)[C@H](O)[C@H](n3cc(-c4cc(F)c(F)c(F)c4)nn3)[C@H]2O)cc1 [Example 91] | 690

Compound | IC50 [nM]
OC[C@H]1O[C@@H](c2nncn2-c2cccc(OC(F)(F)F)c2)[C@H](O)[C@@H](n2cc(-c3cc(F)c(F)c(F)c3)nn2)[C@H]1O [Example 93] | 190
OC[C@H]1O[C@@H](c2nncn2-c2ccc(OC(F)(F)F)cc2)[C@H](O)[C@@H](n2cc(-c3cc(F)c(F)c(F)c3)nn2)[C@H]1O [Example 94] | 1130
OC[C@H]1O[C@@H](c2nncn2-c2ccc3ccccc3c2)[C@H](O)[C@@H](n2cc(-c3cc(F)c(F)c(F)c3)nn2)[C@H]1O [Example 95] | 130
OC[C@H]1O[C@@H](c2nncn2-c2ccccc2F)[C@H](O)[C@@H](n2cc(-c3cc(F)c(F)c(F)c3)nn2)[C@H]1O [Example 97] | 350
COc1ccc(-n2cnnc2[C@@H]2O[C@H](CO)[C@H](O)[C@H](n3cc(-c4cc(F)c(F)c(F)c4)nn3)[C@H]2O)cc1 [Example 98] | 450
O=S1(=O)Cc2ccc(-n3cnnc3[C@@H]3O[C@H](CO)[C@H](O)[C@H](n4cc(-c5cc(F)c(F)c(F)c5)nn4)[C@H]3O)cc2C1 [Example 99] | 890
OC[C@H]1O[C@@H](c2nncn2-c2cc(Cl)cc(Cl)c2)[C@H](O)[C@@H](n2cc(-c3cc(F)c(F)c(F)c3)nn2)[C@H]1O [Example 101] | 80
OC[C@H]1O[C@@H](c2nncn2-c2ccccc2OC(F)(F)F)[C@H](O)[C@@H](n2cc(-c3cc(F)c(F)c(F)c3)nn2)[C@H]1O [Example 102] | 300
OC[C@H]1O[C@@H](c2nncn2-c2ccc(Oc3ccccc3)cc2)[C@H](O)[C@@H](n2cc(-c3cc(F)c(F)c(F)c3)nn2)[C@H]1O [Example 104] | 820
O=S(=O)(Nc1nccs1)c1ccc(-n2cnnc2[C@@H]2O[C@H](CO)[C@H](O)[C@H](n3cc(-c4cc(F)c(F)c(F)c4)nn3)[C@H]2O)cc1 [Example 106] | 760
OC[C@H]1O[C@@H](c2nncn2-c2ccc3ncccc3c2)[C@H](O)[C@@H](n2cc(-c3cc(F)c(F)c(F)c3)nn2)[C@H]1O [Example 107] | 50
OC[C@H]1O[C@@H](c2nncn2-c2ccc(-n3cccc3)cc2)[C@H](O)[C@@H](n2cc(-c3cc(F)c(F)c(F)c3)nn2)[C@H]1O [Example 109] | 520
Cc1nnc(NS(=O)(=O)c2ccc(-n3cnnc3[C@@H]3O[C@H](CO)[C@H](O)[C@H](n4cc(-c5cc(F)c(F)c(F)c5)nn4)[C@H]3O)cc2)s1 [Example 110] | 1550
OC[C@H]1O[C@@H](c2nncn2-c2ccc(-c3nnn[nH]3)cc2)[C@H](O)[C@@H](n2cc(-c3cc(F)c(F)c(F)c3)nn2)[C@H]1O [Example 111] | 820
OC[C@H]1O[C@@H](c2nncn2-c2cccc(-c3nnn[nH]3)c2)[C@H](O)[C@@H](n2cc(-c3cc(F)c(F)c(F)c3)nn2)[C@H]1O [Example 112] | 640
CNS(=O)(=O)Cc1ccc(-n2cnnc2[C@@H]2O[C@H](CO)[C@H](O)[C@H](n3cc(-c4cc(F)c(F)c(F)c4)nn3)[C@H]2O)cc1 [Example 114] | 260
CN(C)S(=O)(=O)c1ccc(-n2cnnc2[C@@H]2O[C@H](CO)[C@H](O)[C@H](n3cc(-c4cc(F)c(F)c(F)c4)nn3)[C@H]2O)cc1 [Example 115] | 11100
